The text below walks through data of patent US4131727A, “Method of purifying alcohol dehydrogenase and affinity resin therefor” (President and Fellows of Harvard College, priority 1978, dated 1978).

For assay [1], the target named is alcohol dehydrogenase. Put plainly: Dissociation of binary complex of alcohol dehydrogenase with NAD. Format: binding. As to conditions: read-out: dissociation constant of the complex. The text has this: The binary complex, in which two molecules of NAD are complexed with 1 molecule of alcohol dehydrogenase, can be prepared simply by mixing NAD with the crude extract of alcohol dehydrogenase. In order to ensure that substantially all of the alcohol dehydrogenase is present in solution in the form of the binary complex, it is desirable to employ an excess of the amount of NAD over that theoretically required. […] Although larger amounts of NAD can be used, there is no advantage in using a concentration above about 10^-3 molar since optimum results are achieved at that concentration with no further improvement even when the concentration of the NAD is 10^-2 molar or even higher, the results being approximately the same at these higher concentrations. The aqueous medium containing the binary complex may be acidified if desired. Satisfactory results are obtained at pH 8.0, but may be improved by decreasing the pH to approximately 7.5 in order to achieve optimum results; however, no further improvement is achieved by further lowering of the pH, the results remaining about the same even at a pH below 6.

Assay [2] relates to human liver alcohol dehydrogenase. Put plainly: Inhibition of alcohol dehydrogenase activity of starting human liver. Format: biochemical. The settings on record: 33 micromolar 4-methyl-pyrazole, pH 10, frozen human liver starting material. The protocol:
Starting with 100 g frozen human liver having a specific activity of pH 10 of about 0.05 I.U./mg and low inhibition (~ 75%) by 33 micromolar 4-methyl-pyrazole at pH 10 as well as high intensity of stain for the anodic band on starch gel electrophoresis, the liver was homogenized in 2.5 volumes water at 4° C., centrifuged for 30 min. at 30,000 rpm in a 30 rotor to provide 240 ml of clear supernatant assaying at 58 I.U. of pyrazole-insensitive activity with a specific activity of 0.002 I.U./mg.

Assay [3] has as its target T1, II-ADH (anodic band of liver alcohol dehydrogenase) (Homo sapiens, UniProt P08319).
T1 construct: Starting with 100 g frozen human liver; from tissue; host or cells: human liver (frozen)
Briefly: Inhibition of purified II-ADH (anodic band, pyrazole-insensitive liver alcohol dehydrogenase) activity. Format: biochemical. As to conditions: 33 micromolar 4-methyl-pyrazole, product after agarose-AMP. From the text:
(§1) However, purification of these enzymes has been a complicated and difficult procedure. […] Elution is preferably carried out with pyrazole solution or with a lower alkanol having at least two carbon atoms, e.g., ethanol, 1-propanol, 1-butanol, 1-pentanol, and the like. Further purification and separation of isoenzymes from the bound portion can be achieved by alcohol gradient elution. The alcohol dehydrogenase of the bound portion can be separated from the NAD after elution, if desired, by conventional dialysis procedures. […] The anodic band of liver alcohol dehydrogenase, as identified by Li et al., Biochem. Biophys. Res. Comm.

Assay [4] relates to other forms of liver alcohol dehydrogenase. Put plainly: Inhibition of the other (pyrazole-sensitive) forms of liver alcohol dehydrogenase. The settings on record: 0.2 mM 4-methylpyrazole, 100 mM ethanol, remainder of the purified enzyme forms. Format: biochemical, human.
Text: as §1

T1 sequence (P08319 2-380 limits assumed): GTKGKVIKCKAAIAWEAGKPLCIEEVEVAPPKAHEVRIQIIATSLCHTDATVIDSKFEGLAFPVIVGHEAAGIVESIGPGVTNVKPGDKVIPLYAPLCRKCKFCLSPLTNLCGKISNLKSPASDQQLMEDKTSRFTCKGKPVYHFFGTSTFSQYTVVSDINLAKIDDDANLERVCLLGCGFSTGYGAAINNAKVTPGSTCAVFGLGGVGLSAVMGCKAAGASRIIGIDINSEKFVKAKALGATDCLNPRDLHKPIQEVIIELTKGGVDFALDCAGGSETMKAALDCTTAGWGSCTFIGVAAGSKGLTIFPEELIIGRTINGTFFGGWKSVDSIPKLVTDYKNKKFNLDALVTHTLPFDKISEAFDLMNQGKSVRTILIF

Consider `NC(=O)c1ccc[n+]([C@@H]2O[C@H](COP(=O)([O-])OP(=O)(O)OC[C@H]3O[C@@H](n4cnc5c(N)ncnc54)[C@H](O)[C@@H]3O)[C@@H](O)[C@H]2O)c1` [NAD], for which the Kd in assay [1] is about 1 µM.

On to `Cc1cn[nH]c1` [4-methylpyrazole], for which the inhibition in assay [2] is recorded as ~ 75%. In addition, in assay [3], the “inhibition (in words)” value is on record as “virtually uninhibited”. The inhibition of activity entry in assay [4] is on record as “more than 90%”.
